Converted amounts (≈) assume the structure as drawn. Where two headings read alike, the source gives them in different places.
Columns and labels:
[1] = target: Human recombinant cyclophilin A (Cyp A) (Homo sapiens (Human), UniProt P62937); assay: Protease-free PPIase assay
Procedure: Protease-Free PPIase Assay
The protease-free PPIase assay measures the rate of cis to trans conversion of a peptide substrate catalyzed by the enzyme cyclophilin A. Addition of a cyclophilin A inhibitor (e.g., a test compound) slows the catalyzed rate and a Ki value is obtained.
35 mM HEPES pH 7.8, filtered through a 0.2 μm filter. 50 μM DTT was added prior to use each day and then the buffer was stored on ice.
Human recombinant cyclophilin A (Cyp A) (Sigma C3805) enzyme was diluted to 1 μM with enzyme dilution buffer (20 mM HEPES pH 7.8, 40% glycerol, 50 μM DTT and 1 μM BSA) and stored at −20° C.
Succinimide-Ala-Ala-Pro-Phe-p-nitroanilide (SUC-AAPF-pNA) (from Bachem AG, L-1400), 20 mg/ml prepared in 0.5 M LiCl in trifluoroethanol.
The temperature is monitored by the use of a temperature probe. To prevent UV degradation of test compounds, the light below 290 nm was blocked using a glass slide in the light path. 1.5 ml of the assay buffer was put into a 3 ml quartz cuvette and cooled to 10.0±0.1° C. while stirring (vigorous but not so fast as to produce cavitation). The inhibitor was diluted in 100% DMSO, and then added to the assay to a maximum final concentration of 0.5% DMSO in the assay. A blank spectrum was obtained, then 3 μL of enzyme was added (2 nM final concentration) and then 3 μL substrate (60 μM final concentration) added. The absorbance was measured at 330 nm for 300 s or 500 s for blank runs (NOTE: the substrate must be added in one quick injection and the measurements started immediately to minimize mixing errors).
A first order rate equation was fitted to the absorbance data, for each concentration of inhibitor, to obtain the rate constant (the first 10 to 15 seconds were excluded as mixing causes errors in this portion of curve). The catalytic rate was calculated from the enzymatic rate constant minus the background rate constant. An exponential curve was generated using the catalytic rate constants versus the inhibitor concentration to obtain the Ki value for the inhibitor. The Ki value is indicative of the binding affinity between the test compound and cyclophilin A.

[2] = target: calcineurin/cyclophilin A (Homo sapiens (Human), UniProt P62937+P63098+Q08209); assay: Calcineurin Phosphatase (CaN) Assay (+CypA); format: biochemical; conditions: in the presence of Cyp A, 1:1 complex with inhibitor; read-out: Calcineurin Phosphatase (CaN) Assay (+CypA) IC50
From the text: Calcineurin Phosphatase (CaN) Assay
The calcineurin phosphatase assay is a means for estimating the immunosuppressive potential of a test compound. Calcineurin is a serine-threonine protein phosphatase that on activation dephosphorylates members of the nuclear factor of activated T cells (NFAT), which are important in T lymphocyte activation.
To investigate the immunosuppressive potential of exemplary compounds of Formula I, which are cyclosporin analogs, their ability to inhibit calcineurin activity was measured in the presence and absence of Cyp A.
The CaN assay kit used is based on a colorimetric assay for measuring calcineurin phosphatase activity, and it is commercially available (Enzo Life Sciences and Calbiochem). Calmodulin is also required for calcineurin activity and RII phosphopeptide is used as an efficient peptide substrate for calcineurin. […] The detection of free phosphate released is based on the classic Malachite green assay.
Enzo Life Sciences CaN Assay Kit: BML-AK804
Malachite Green: BIOMOL Green™ reagent
Calmodulin (Human, recombinant): was thawed on ice, diluted 1:50 with 2× assay buffer, and then stored on ice.
Calcineurin: was thawed quickly, stored on ice immediately, diluted 1:12.5 with 1× assay buffer, and then stored on ice.
R-II Substrate: 915 μL ultrapure water (UPW) was added to the 1.5 mg vial substrate to give a final concentration of 0.75 mM.
Inhibitors: 2.5 mM inhibitor in 100% DMSO.
Cyp A: recombinant human CypA (Sigma C3805), 1 mg/ml; Recombinant 6-His tagged CypA prepared by the University of Edinburgh was also used.
Inhibitor dilutions: inhibitor compounds were diluted in UPW in polypropylene low-binding 96 well plates at 5× the final assay concentration.
Assay Setup: using the half area 96 well plates supplied with the kit, 10 μl UPW was added to duplicate wells to provide the non-inhibited control. 10 μl of the inhibitor or the inhibitor/Cyp A complex was added to the appropriate sample wells. 25 μl of the 2× assay buffer with CaM was added to all wells, then 5 μl of CaN was added to all wells (40 U per well final concentration) except duplicate ‘no calcineurin blank’ wells to which 5 μL 1× assay buffer was added. The assay plate was placed in an oven at 30° C. for 15 minutes to equilibrate to the reaction temperature. The reaction was started by the addition of 10 μl RII-peptide (0.15 mM final concentration). The reaction was allowed to proceed at 30° C. for a time period in which the reaction is linear for about 60 minutes. The reaction was then terminated by adding 100 μl of the Malachite Green reagent. The color was allowed to develop for 15-30 minutes at room temperature before the absorbance at 620 nm was measured using a plate reader (Molecular Devices—SpectraMax M5). The data were analyzed by subtracting ‘no Calcineurin blank’ from all the absorbance readings and plotting the background corrected absorbances against Log10 inhibitor concentration. A sigmoidal-dose response curve was fitted to the data using GraphPad Prism Software.
It exerts its immunosuppressive activity by binding to cyclophilin A to form a complex, which then binds to calcineurin and thereby inhibits calcineurin activity.

[3] = Water Solubility Assay (measured in pH 7.8 buffer); format: physicochemical; conditions: kinetic from dmso stock, 25 °C
Procedure: Water Solubility Assay (Measured in pH 7.8 Buffer)
The aqueous solubility of a compound of Formula I in buffer (pH 7.8) was measured by recording the onset of precipitation of the compound as a function of increasing concentration. The onset of precipitation, if it occurred, was detected by an increase in absorbance at 650 nm.
Assay Buffer: 35 mM HEPES pH 7.8
Stock solutions of Control and Test Compounds: 10 mM in 100% DMSO.
10 mM stock solutions of control and test compounds were prepared in 100% DMSO.
Assay buffer (247.5 μl) was placed into flat bottomed transparent 96-well plate. For blank samples DMSO (2.5 μl) was added. For test and control samples 2.5 μl of the appropriate DMSO dilution stocks were added to the appropriate well. All test and control compounds were performed in triplicate.
The plates were sealed with adhesive plate seal and shaken at 250 rpm at 25° C. for 18 h on a plate shaker. After incubation the plate seals were taken off and any bubbles observed in wells removed. The plates were read on a SpectraMaxM5 with a 5 s pre-shake at 650 nm. Data files were transferred to the appropriate worksheet and the solubility range of the compounds was calculated from the data. The values shown in the Tables indicate the concentration in μM (micromolar) at which the compound remains in solution.

[4] = read-out: Protease-free PPIase Assay Ki, human recombinant Cyp A, 10 °C
[5] = 35 mM HEPES buffer pH 7.8, aqueous buffer, 35 mM HEPES pH 7.8, 1% DMSO, 18 h, read-out: Water Solubility Assay, concentration at which the compound remains in solution

IC50 [2] [nM] | Ki [1] [nM] | solubility at 18 h ([3]; pH 7.8, aqueous buffer) [µM] | Structure (SMILES) | Ki [1, 4] [nM] | solubility at 18 h [3, 5] [µM]
2500 | 5.6 | 50 to 75 (≈ 64.1 to 96.1 µg/mL) | CC[C@H]1NC(=O)[C@@H]([C@H](O)[C@H](C)CCCc2cccnc2)N(C)C(=O)[C@@H](C(C)C)N(C)C(=O)[C@@H](CC(C)C)N(C)C(=O)[C@@H](CC(C)C)N(C)C(=O)[C@H](C)NC(=O)[C@@H](C)NC(=O)[C@@H](CC(C)C)N(C)C(=O)[C@@H](C(C)C)NC(=O)[C@H](CC(C)C)N(C)C(=O)[C@@H](C)N(C)C1=O [Compound 11, [(2S,3R,4S)-3-Hydroxy-4-methyl-2-(methylamino)-7-(pyridin-3-yl)-heptanoic acid]^1 [(R)-methyl-Sar]^3 cyclosporin A] | – | –
1400 | 3.8 | 50 to 75 (≈ 64.1 to 96.1 µg/mL) | CC[C@H]1NC(=O)[C@@H]([C@H](O)[C@H](C)CCCc2ccccn2)N(C)C(=O)[C@@H](C(C)C)N(C)C(=O)[C@@H](CC(C)C)N(C)C(=O)[C@@H](CC(C)C)N(C)C(=O)[C@H](C)NC(=O)[C@@H](C)NC(=O)[C@@H](CC(C)C)N(C)C(=O)[C@@H](C(C)C)NC(=O)[C@H](CC(C)C)N(C)C(=O)[C@@H](C)N(C)C1=O [Compound 12, [(2S,3R,4R)-3-Hydroxy-4-methyl-2-(methylamino)-7-(pyridin-2-yl)-heptanoic acid]^1 [(R)-methyl-Sar]^3 cyclosporin A] | – | –
1450 | 3.2 | 25 to 50 (≈ 32.5 to 65.1 µg/mL) | CC[C@H]1NC(=O)[C@@H]([C@H](O)[C@H](C)CCCc2csc(C)n2)N(C)C(=O)[C@@H](C(C)C)N(C)C(=O)[C@@H](CC(C)C)N(C)C(=O)[C@@H](CC(C)C)N(C)C(=O)[C@H](C)NC(=O)[C@@H](C)NC(=O)[C@@H](CC(C)C)N(C)C(=O)[C@@H](C(C)C)NC(=O)[C@H](CC(C)C)N(C)C(=O)[C@@H](C)N(C)C1=O [Compound 13, [(2S,3R,4R)-3-Hydroxy-4-methyl-2-(methylamino)-7-(2-methyl-thiazol-4-yl)-heptanoic acid]^1 [(R)-methyl-Sar]^3 cyclosporin A] | – | –
1600 | 2.5 | 50 to 75 (≈ 64.1 to 96.1 µg/mL) | CC[C@H]1NC(=O)[C@@H]([C@H](O)[C@H](C)CCCc2ccncc2)N(C)C(=O)[C@@H](C(C)C)N(C)C(=O)[C@@H](CC(C)C)N(C)C(=O)[C@@H](CC(C)C)N(C)C(=O)[C@H](C)NC(=O)[C@@H](C)NC(=O)[C@@H](CC(C)C)N(C)C(=O)[C@@H](C(C)C)NC(=O)[C@H](CC(C)C)N(C)C(=O)[C@@H](C)N(C)C1=O [Compound 15, [(2S,3R,4R)-3-Hydroxy-4-methyl-2-(methylamino)-7-(pyridin-4-yl)-heptanoic acid]^1 [(R)-methyl-Sar]^3 cyclosporin A] | – | –

The remaining lines, values behind:

Structure (SMILES) | IC50 [2] [nM] | Ki [1] [nM] | solubility at 18 h ([3]; pH 7.8, aqueous buffer) [µM] | Ki [1, 4] [nM] | solubility at 18 h [3, 5] [µM]
CC[C@H]1NC(=O)[C@@H]([C@H](O)[C@H](C)Cc2nccn2Cc2ccccn2)N(C)C(=O)[C@@H](C(C)C)N(C)C(=O)[C@@H](CC(C)C)N(C)C(=O)[C@@H](CC(C)C)N(C)C(=O)[C@H](C)NC(=O)[C@@H](C)NC(=O)[C@@H](CC(C)C)N(C)C(=O)[C@@H](C(C)C)NC(=O)[C@H](CC(C)C)N(C)C(=O)[C@@H](C)N(C)C1=O [Compound 5, [(2S,3R,4R)-3-Hydroxy-4-methyl-2-(methylamino)-5-(1-(pyridin-2-yl-methyl)-1H-imidazol-2-yl)-pentanoic acid]^1 [(R)-methyl-Sar]^3cyclosporin A] | 8600 | – | – | 4.1 | > 100
CC[C@H]1NC(=O)[C@@H]([C@H](O)[C@H](C)Cc2nccn2CCCO)N(C)C(=O)[C@@H](C(C)C)N(C)C(=O)[C@@H](CC(C)C)N(C)C(=O)[C@@H](CC(C)C)N(C)C(=O)[C@H](C)NC(=O)[C@@H](C)NC(=O)[C@@H](CC(C)C)N(C)C(=O)[C@@H](C(C)C)NC(=O)[C@H](CC(C)C)N(C)C(=O)[C@@H](C)N(C)C1=O [Compound 6, [(2S,3R,4R)-3-Hydroxy-5-(1-(3-hydroxypropyl)-1H-imidazol-2-yl)-4-methyl-2-(methylamino)pentanoic acid]^1 [(R)-methyl-Sar]^3 cyclosporin A] | 4750 | 5.1 | > 100 | – | –
CC[C@H]1NC(=O)[C@@H]([C@H](O)[C@H](C)Cc2nccn2CCc2cccnc2)N(C)C(=O)[C@@H](C(C)C)N(C)C(=O)[C@@H](CC(C)C)N(C)C(=O)[C@@H](CC(C)C)N(C)C(=O)[C@H](C)NC(=O)[C@@H](C)NC(=O)[C@@H](CC(C)C)N(C)C(=O)[C@@H](C(C)C)NC(=O)[C@H](CC(C)C)N(C)C(=O)[C@@H](C)N(C)C1=O [Compound 7, [(2S,3R,4R)-3-Hydroxy-4-methyl-2-(methylamino) 5-(1-(pyridin-3-yl-ethyl)-1H-imidazol-2-yl)pentanoic acid]^1 [(R)-methyl-Sar]^3 cyclosporin A] | 7850 | – | – | 5.6 | > 100
CC[C@H]1NC(=O)[C@@H]([C@H](O)[C@H](C)Cc2nc3ccccc3[nH]2)N(C)C(=O)[C@@H](C(C)C)N(C)C(=O)[C@@H](CC(C)C)N(C)C(=O)[C@@H](CC(C)C)N(C)C(=O)[C@H](C)NC(=O)[C@@H](C)NC(=O)[C@@H](CC(C)C)N(C)C(=O)[C@@H](C(C)C)NC(=O)[C@H](CC(C)C)N(C)C(=O)[C@@H](C)N(C)C1=O [Compound 9, [(2S,3R,4R)-1-(1H-Benzimidazol-2-yl)-3-hydroxy-4-methyl-2-(methylamino)pentanoic acid]^1 [(R)-methyl-Sar]^3 cyclosporin A] | > 10000 | 2.3 | 25 to 50 (≈ 32.3 to 64.6 µg/mL) | – | –
